In patent US8513232B2, “Substituted spirocyclic piperidine derivatives as histamine-3 (H3) receptor ligands” (Cephalon, Inc., priority 2008, dated 2013):
Like-named read-outs stand apart in the source and are kept apart here.

Legend:
human H3 receptor = molecular target: T1, human H3 receptor (Homo sapiens, UniProt Q9Y5N1); experiment: Human H3 radioligand binding ([3H]-N-alpha-methylhistamine, SPA)
T1 construct: expressed in transfected cells
How it was run: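 SPA competition binding on membranes from CHO cells stably expressing human H3 receptor (10 μg protein/well) with ~1 nM [3H]-N-alpha-methylhistamine and compound at 0.01 nM-30 μM. Incubation 4 h at room temperature in 50 mM Tris-HCl pH 7.4, 5 mM MgCl2, 0.1% BSA; non-specific binding defined with 10 μM clobenpropit.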

[1] = molecular target: T2, rat histamine H3 receptor (Rattus norvegicus, UniProt Q9QYN8); experiment: Rat H3 radioligand binding ([3H]-N-alpha-methylhistamine, SPA)
T2 construct: encoding the entire 445-amino-acid rat histamine H3 receptor; expressed in transfected cells; membrane preparation
How it was run: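 Membranes from CHO-A3 cells stably expressing full-length rat H3 receptor (10 μg protein/well) incubated 4 h at room temperature, protected from light, with ~1 nM [3H]-N-alpha-methylhistamine and compound (0.01 nM-30 μM) in 50 mM Tris HCl pH 7.4, 5 mM MgCl2, 0.1% BSA. Binding read by SPA; 10 μM clobenpropit defined non-specific binding.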

[2] = human H3 binding, Table D, read-out: Human H3 Ki
[3] = rat H3 binding, Table D, read-out: Rat H3 Ki
[4] = Table C, human H3 binding, read-out: Human H3 Ki
[5] = Table C, rat H3 binding, read-out: Rat H3 Ki
[6] = Human H3 binding, Table B, Examples 136-362, read-out: hum H3 binding Ki
[7] = Rat H3 binding, Table B, Examples 136-362, read-out: rat H3 binding Ki
[8] = Table A, human H3 binding, read-out: Human Ki
[9] = Table A, rat H3 binding, read-out: Rat Ki

T1 sequence (Q9Y5N1 whole entry): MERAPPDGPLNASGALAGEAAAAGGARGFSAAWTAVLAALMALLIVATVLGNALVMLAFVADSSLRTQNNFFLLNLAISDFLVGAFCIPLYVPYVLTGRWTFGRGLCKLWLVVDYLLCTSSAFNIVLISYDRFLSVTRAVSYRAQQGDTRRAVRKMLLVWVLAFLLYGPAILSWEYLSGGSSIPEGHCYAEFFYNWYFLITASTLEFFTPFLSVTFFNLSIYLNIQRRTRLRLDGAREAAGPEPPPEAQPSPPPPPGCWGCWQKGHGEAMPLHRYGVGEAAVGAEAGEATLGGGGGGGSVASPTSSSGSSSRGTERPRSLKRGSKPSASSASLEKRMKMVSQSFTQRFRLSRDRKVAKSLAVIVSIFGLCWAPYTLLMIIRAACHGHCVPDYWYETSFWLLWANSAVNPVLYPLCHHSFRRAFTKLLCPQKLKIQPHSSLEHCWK
T2 sequence (Q9QYN8 whole entry): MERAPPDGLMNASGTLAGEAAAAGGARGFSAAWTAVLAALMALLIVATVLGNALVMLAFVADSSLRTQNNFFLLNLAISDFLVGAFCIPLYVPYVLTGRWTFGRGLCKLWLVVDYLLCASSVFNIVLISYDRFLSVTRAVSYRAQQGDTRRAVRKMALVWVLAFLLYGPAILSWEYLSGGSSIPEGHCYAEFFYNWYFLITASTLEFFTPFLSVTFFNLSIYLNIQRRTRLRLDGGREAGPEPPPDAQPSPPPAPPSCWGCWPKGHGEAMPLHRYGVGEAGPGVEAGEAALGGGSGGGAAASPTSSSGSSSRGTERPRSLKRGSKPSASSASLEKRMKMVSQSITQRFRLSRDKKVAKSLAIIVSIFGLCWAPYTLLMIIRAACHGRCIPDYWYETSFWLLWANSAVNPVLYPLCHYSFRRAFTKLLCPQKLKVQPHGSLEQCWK

SMILES | melting point | Ki (human H3 receptor; [2]) [nM] | Ki [1, 3] [nM] | Ki (human H3 receptor; [6]) [nM] | also measured
CCOC(=O)C1CC=C(c2ccc3c(c2)CCC2(CCN(C4CCC4)CC2)O3)CC1 (stereo not drawn) [Example 455] | 137 to 139 °C | – | – | – | Ki (human H3 receptor; read-out: Human H3 Ki): < 200 nM; Ki ([1]; read-out: Rat H3 kI): < 200 nM
Cc1cc(C2CCN(c3ccc4c(c3)COC3(CCN(C5CCC5)CC3)O4)CC2)on1 [Example 665] | 135.9 to 137.2 °C | < 200 | < 200 | – | –
O=C(O)c1cc(-c2ccc3c(c2)COC2(CCN(C4CCC4)CC2)O3)cs1 [Example 570] | 230 to 240 °C (dec.) | < 200 | < 200 | – | –
CNC(=O)C1CCN(c2ccc3c(c2)CCC2(CCN(C4CCC4)CC2)O3)CC1 [Example 396] | 264 to 267 °C | – | – | – | Ki (human H3 receptor; [4]): < 200 nM; Ki [1, 5]: < 200 nM
CCN(CC)C(=O)N1CCN(c2ccc3c(c2)COC2(CCN(C4CCC4)CC2)O3)CC1 [Example 351] | 113 to 116.1 °C | – | – | < 200 | Ki [1, 7]: < 200 nM
OC1(c2ccc3c(c2)COC2(CCN(C4CCC4)CC2)O3)CCCCC1 [Example 512] | 164 to 165 °C | – | – | – | Ki (human H3 receptor; read-out: Human H3 Ki): < 200 nM; Ki ([1]; read-out: Rat H3 kI): < 200 nM
Clc1ccc(-c2ccc3c(c2)CCC2(CCN(C4CCC4)CC2)O3)cn1 [Example 371] | 168 to 169 °C | – | – | – | Ki (human H3 receptor; [4]): < 200 nM; Ki [1, 5]: < 200 nM
O=C(CCc1ccc2c(c1)COC1(CCN(C3CCC3)CC1)O2)N1CCOCC1 [Example 660] | 71 to 73 °C | < 200 | < 200 | – | –
COCCN(C)C(=O)c1ccc(-c2ccc3c(c2)CCC2(CCN(C4CCC4)CC2)O3)cc1Cl [Example 575] | 101 to 104 °C | < 200 | < 200 | – | –
c1cc2c(cc1OCC1CCOC1)CCC1(CCN(C3CCC3)CC1)O2 (stereo not drawn) [Example 463] | 97 to 99 °C | – | – | – | Ki (human H3 receptor; read-out: Human H3 Ki): < 200 nM; Ki ([1]; read-out: Rat H3 kI): < 200 nM
COc1cc(-c2ccc3c(c2)COC2(CCN(C4CCC4)CC2)O3)ccc1C(N)=O [Example 742] | 212 to 214 °C | < 200 | < 200 | – | –
CN(C)C(=O)C1CCN(c2ccc3c(c2)CCC2(CCN(C4CCC4)CC2)O3)CC1 [Example 436] | 140 to 142 °C | – | – | – | Ki (human H3 receptor; [4]): < 200 nM; Ki [1, 5]: < 200 nM
O=S1(=O)CCC(Oc2ccc3c(c2)CCC2(CCN(C4CCC4)CC2)O3)C1 (stereo not drawn) [Example 490] | 252 to 254 °C | – | – | – | Ki (human H3 receptor; read-out: Human H3 Ki): < 200 nM; Ki ([1]; read-out: Rat H3 kI): < 200 nM
CN1CCN(c2ccc3c(c2)OC2(CCN(C4CCC4)CC2)O3)C1=O [Example 151] | 186 to 187 °C | – | – | < 200 | Ki ([1]; Rat H3 binding, Table B, given as numeric bound instead of class symbol, read-out: rat H3 binding Ki): > 300 nM
OC1(c2ccc3c(c2)COC2(CCN(C4CCC4)CC2)O3)CCSCC1 [Example 465] | 174 to 176 °C | – | – | – | Ki (human H3 receptor; read-out: Human H3 Ki): < 200 nM; Ki ([1]; read-out: Rat H3 kI): < 200 nM
CC(C)(C)N1CCC2(CC1)OCc1cc(-c3ccc(=O)[nH]c3)ccc1O2 [Example 733] | 241 to 243 °C | < 200 | < 200 | – | –
CCOCC1CCN(c2ccc3c(c2)CCC2(CCN(C4CCC4)CC2)O3)CC1 [Example 626] | 101.6 to 103.2 °C | < 200 | < 200 | – | –
O=C1CCC(Cc2ccc3c(c2)COC2(CCN(C4CCC4)CC2)O3)CN1 (stereo not drawn) [Example 539] | 219 to 221 °C | – | – | – | Ki (human H3 receptor; read-out: Human H3 Ki): < 200 nM; Ki ([1]; read-out: Rat H3 kI): < 200 nM
O=c1ccc(C(O)c2ccc3c(c2)COC2(CCN(C4CCC4)CC2)O3)c[nH]1 (stereo not drawn) [Example 526] | 217 to 219 °C | – | – | – | Ki (human H3 receptor; read-out: Human H3 Ki): < 200 nM; Ki ([1]; read-out: Rat H3 kI): < 200 nM
O=C(Nc1ccc2c(c1)COC1(CCN(C3CCC3)CC1)O2)c1cnccn1 [Example 304] | 173 to 175 °C | – | – | < 200 | Ki [1, 7]: < 200 nM
O=c1ccc(-c2ccc3c(c2)COC2(CCN(C4CCC4)CC2)O3)cn1C(F)F [Example 737] | 125 to 127 °C | < 200 | < 200 | – | –
COCCNC(=O)c1ccc(-c2ccc3c(c2)COC2(CCN(C4CCC4)CC2)O3)cc1F [Example 202] | 107 to 108.5 °C | – | – | < 200 | Ki [1, 7]: < 200 nM
CC(=O)N(Cc1ccccc1)c1ccc2c(c1)COC1(CCN(C3CCC3)CC1)O2 [Example 290] | 115 to 117 °C | – | – | < 200 | Ki [1, 7]: < 200 nM
Cc1cc(-c2ccc3c(c2)COC2(CCN(C4CCC4)CC2)O3)ccc1C(=O)NCCO [Example 231] | 168.5 to 169.9 °C | – | – | < 200 | Ki [1, 7]: < 200 nM
CNC(=O)c1cc(Oc2ccc3c(c2)CCC2(CCN(C4CCC4)CC2)O3)ccn1 [Example 281] | 255 to 257 °C | – | – | < 200 | Ki [1, 7]: < 200 nM

SMILES | melting point | Ki (human H3 receptor; [2]) [nM] | Ki [1, 3] [nM] | Ki (human H3 receptor; [6]) [nM] | also measured
COc1ccc(-c2ccc3c(c2)COC2(CCN(C4CCC4)CC2)O3)cn1 [Example 22] | 122 to 124 °C | – | – | – | Ki (human H3 receptor; [8]): < 200 nM; Ki [1, 9]: < 200 nM
O=C1CCC(c2ccc3c(c2)COC2(CCN(C4CCC4)CC2)O3)CN1 (stereo not drawn) [Example 530] | 233 to 235 °C | – | – | – | Ki (human H3 receptor; read-out: Human H3 Ki): < 200 nM; Ki ([1]; read-out: Rat H3 kI): < 200 nM
CN(C)C(=O)c1ccc(Nc2ccc3c(c2)COC2(CCN(C4CCC4)CC2)O3)cc1 [Example 169] | 66 to 74 °C | – | – | < 200 | Ki [1, 7]: < 200 nM
COc1ccc(-c2ccc3c(c2)COC2(CCN(C4CC(C(=O)O)C4)CC2)O3)cn1 (stereo not drawn) [Example 734] | 260 to 262 °C | > 1000 | > 1000 | – | –
CCSc1cc(-c2ccc3c(c2)COC2(CCN(C4CCC4)CC2)O3)c[nH]c1=O [Example 728] | 241 to 243 °C | < 200 | < 200 | – | –
Cc1nn(C)c(C)c1-c1ccc2c(c1)CCC1(CCN(C3CCC3)CC1)O2 [Example 171] | 47 to 49 °C | – | – | < 200 | Ki [1, 7]: < 200 nM
COC[C@H](C)NC(=O)c1ccc(-c2ccc3c(c2)COC2(CCN(C4CCC4)CC2)O3)cc1Cl [Example 598] | 150 to 152 °C | < 200 | < 200 | – | –
O=c1ccc(-c2ccc3c(c2)COC2(CCN(CCC4CCOCC4)CC2)O3)c[nH]1 [Example 703] | 214 to 216 °C | 200 to 1000 | > 1000 | – | –
COCCNC(=O)c1ccc(-c2ccc3c(c2)COC2(CCN(C4CCC4)CC2)O3)cn1 [Example 195] | 113 to 114 °C | – | – | < 200 | Ki [1, 7]: < 200 nM
CS(=O)(=O)c1ccccc1C(=O)Nc1ccc2c(c1)COC1(CCN(C3CCC3)CC1)O2 [Example 216] | 143 to 145 °C | – | – | 200 to 1000 | Ki [1, 7]: < 200 nM
O=C(Nc1ccc2c(c1)COC1(CCN(C3CCC3)CC1)O2)c1ccccn1 [Example 152] | 172 to 174 °C | – | – | < 200 | Ki [1, 7]: < 200 nM
OC1CCC(c2ccc3c(c2)COC2(CCN(C4CCC4)CC2)O3)CC1 (stereo not drawn) [Example 498] | 150 to 153 °C | – | – | – | Ki (human H3 receptor; read-out: Human H3 Ki): < 200 nM; Ki ([1]; read-out: Rat H3 kI): < 200 nM
CNC(=O)c1ccc(-c2ccc3c(c2)COC2(CCN(C4CCC4)CC2)O3)cc1F [Example 36] | 147.8 to 149 °C | – | – | – | Ki (human H3 receptor; [8]): < 200 nM; Ki [1, 9]: < 200 nM
O=C(Nc1ccccc1)Nc1ccc2c(c1)COC1(CCN(C3CCC3)CC1)O2 [Example 162] | 229 to 231 °C | – | – | < 200 | Ki [1, 7]: < 200 nM
COCCNC(=O)CC1CCN(c2ccc3c(c2)COC2(CCN(C4CCC4)CC2)O3)CC1 [Example 588] | 150.1 to 152.2 °C | < 200 | < 200 | – | –
c1ccc(COc2ccc(-c3ccc4c(c3)COC3(CCN(C5CCC5)CC3)O4)cn2)cc1 [Example 529] | 139 to 141 °C | – | – | – | Ki (human H3 receptor; read-out: Human H3 Ki): < 200 nM; Ki ([1]; read-out: Rat H3 kI): 200 to 1000 nM
Cc1c(-c2ccc(=O)[nH]c2)ccc2c1COC1(CCN(C3CCC3)CC1)O2 [Example 552] | 246 to 249 °C | – | – | – | Ki (human H3 receptor; read-out: Human H3 Ki): < 200 nM; Ki ([1]; read-out: Rat H3 kI): < 200 nM
CN(C)C(=O)c1ccccc1Nc1ccc2c(c1)COC1(CCN(C3CCC3)CC1)O2 [Example 166] | 50 to 53 °C | – | – | < 200 | Ki [1, 7]: < 200 nM
CCOC(=O)c1cc(=O)n(C)cc1-c1ccc2c(c1)COC1(CCN(C3CCC3)CC1)O2 [Example 762] | 71 to 74 °C | < 200 | < 200 | – | –
OC(c1cncnc1)c1ccc2c(c1)COC1(CCN(C3CCC3)CC1)O2 (stereo not drawn) [Example 692] | 57 to 60 °C | < 200 | < 200 | – | –
CCS(=O)(=O)c1ccc(-c2ccc3c(c2)COC2(CCN(C4CCC4)CC2)O3)s1 [Example 661] | 150 to 152 °C | < 200 | < 200 | – | –
O=C(Nc1ccc2c(c1)CCC1(CCN(C3CCC3)CC1)O2)c1ccns1 [Example 270] | 109 to 111 °C | – | – | < 200 | Ki [1, 7]: < 200 nM
O=C(NC1CCOCC1)c1ccc(-c2ccc3c(c2)COC2(CCN(C4CCC4)CC2)O3)cc1Cl [Example 606] | 209 to 211 °C | < 200 | < 200 | – | –
c1cc(-c2ccc3c(c2)CCC2(CCN(C4CCC4)CC2)O3)cs1 [Example 454] | 110 to 112 °C | – | – | – | Ki (human H3 receptor; read-out: Human H3 Ki): < 200 nM; Ki ([1]; read-out: Rat H3 kI): < 200 nM
